Results: article PMC4557015, “Structure-Activity Relationships of the Bioactive Thiazinoquinone Marine Natural Products Thiaplidiaquinones A and B” (Marine Drugs, 2015)
Like-named read-outs stand apart in the source and are kept apart here.

Tests used:
[1] = test system: Plasmodium falciparum, NF54 strain (chloroquine sensitive), IEF stage; experiment: In vitro antimalarial activity, P. falciparum NF54 strain; type: cell-based
Description: (§1) Detailed protocols have been reported elsewhere.

[2] = test system: Plasmodium falciparum, FcM29-Cameroon strain (chloroquine-resistant); experiment: In vitro antimalarial activity, P. falciparum FcM29-Cameroon strain; type: cell-based; conditions: for IC50: Plasmodium falciparum, read-out: P. falc. IC50; for activity against P. falciparum (in words): FcM29-Cameroon strain
Description: as §1

[3] = target: Human farnesyltransferase (Homo sapiens, UniProt P49354+P49356); experiment: Anti-farnesyltransferase assay (human); type: biochemical; conditions: average of three assays; read-out: FTase (H) IC50
Description: as §1

[4] = test system: human leukemia T cell line Jurkat; parameters: method as in PMID 15857147; conditions: standard cell viability assay; read-out: cytotoxicity towards Jurkat cells IC50; cited from earlier work
[5] = test system: Jurkat cells; experiment: Jurkat cell cytotoxicity assay, Annexin V-FITC/PI flow cytometry; type: cell-based, human; conditions: for mode of Jurkat cell death (Annexin V-FITC/PI): 100 μM, 24 h treatment, flow cytometry; for concentration at which toxicity towards Jurkat cells is apparent: 24 h
Experimental: In addition, by using propidium iodide (PI) as a probe, from the observation of treated cells having a significant loss of nuclear DNA in combination with ROS production it was concluded that both 1 and 2 were inducing apoptosis. […] For our assessment of the mechanism of cell death, we used the combination of Annexin V-FITC and PI stains to allow us to evaluate the ability of test compounds 1–6 to induce apoptosis or necrosis (or both) in Jurkat cells. After 24 h treatment in the presence of 100 μM of each test compound, cells were analyzed by flow cytometry to identify live (AnV^−/PI^−), apoptosing (AnV^+/PI^−), necrotic (AnV^−/PI^+) and late apoptotic (AnV^+/PI^+) cells.
Cells were resuspended in cRPMI at 1 × 10^6 cells/mL and 100 μL cells added to individual wells of a 96-well round bottom plate. Compounds were made up in DMSO to 10 mM for a stock solution. A ten-fold dilution series was made for each stock solution in cRPMI from 1 mM to 10 nM and 10 μL of each added to triplicate wells, for final concentrations of 100 μM to 1 nM, along with corresponding DMSO controls. The cells plus compounds were then incubated for 24 h at 37 °C. The cells were washed in ice-cold Annexin V binding buffer (200 mL PBS with 10 mM HEPES, 140 mM NaCl and 2.5 mM CaCl2). The cell pellets were labelled with 5 μL of Annexin V-FITC (BD Pharmingen) for 15 min at 4 °C. Cells were washed again with ice-cold Annexin V buffer and labelled with 10 μL of 5 μg/mL PI for 7 min at 4 °C. Cells were washed and resuspended in FACS buffer, and Annexin V/PI staining analysed using flow cytometry. Annexin V positive cells were undergoing apoptosis, while PI positive cells were necrotic. Double positive cells were dead, while double negative cells were live cells.

[6] = test system: Jurkat cells; parameters: method as in PMID 15857147; conditions: relative to untreated cells; cited from earlier work
[7] = test system: Jurkat cells; experiment: Intracellular ROS, DHR123 flow cytometry; type: cell-based, human; conditions: top test concentration of 100 μM, 30 min
Experimental: In the present study, the presence of ROS in Jurkat cells was determined using dihydrorhodamine 123 (DHR123), a cell permeable probe that becomes fluorescent when oxidized to rhodamine 123 in the presence of ROS [7]. Once the cells were loaded with DHR123, they were then treated with test compounds at a range of concentrations, and the mean fluorescent intensity determined by flow cytometry.
Cells were resuspended in HBSS at 1 × 10^6 cells/mL and 100 μL cells added to individual wells of a 96-well round bottom plate. DHR123 was added to the wells for a final concentration of 500 nM per well and cells incubated for 5 min to allow uptake of DHR123. Compounds were made up in DMSO to 10 mM for a stock solution. A ten-fold dilution series was made for each stock solution in HBSS from 1 mM to 10 nM and 10 μL of each added to triplicate wells, for final concentrations of 100 μM to 1 nM, along with corresponding DMSO controls. The assay was incubated at 37 °C for 30 min, and the cells were washed and resuspended in FACS buffer (PBS with 0.1% BSA and 0.2% sodium azide). Intracellular ROS was measured by flow cytometry analysis of DHR123 uptake.

[8] = target: Trypanosoma brucei farnesyltransferase (Trypanosoma brucei, UniProt Q57U08+Q580J3); experiment: Anti-farnesyltransferase assay (T. brucei); type: biochemical
Chain of Trypanosoma brucei farnesyltransferase (Q580J3 entry or part of it): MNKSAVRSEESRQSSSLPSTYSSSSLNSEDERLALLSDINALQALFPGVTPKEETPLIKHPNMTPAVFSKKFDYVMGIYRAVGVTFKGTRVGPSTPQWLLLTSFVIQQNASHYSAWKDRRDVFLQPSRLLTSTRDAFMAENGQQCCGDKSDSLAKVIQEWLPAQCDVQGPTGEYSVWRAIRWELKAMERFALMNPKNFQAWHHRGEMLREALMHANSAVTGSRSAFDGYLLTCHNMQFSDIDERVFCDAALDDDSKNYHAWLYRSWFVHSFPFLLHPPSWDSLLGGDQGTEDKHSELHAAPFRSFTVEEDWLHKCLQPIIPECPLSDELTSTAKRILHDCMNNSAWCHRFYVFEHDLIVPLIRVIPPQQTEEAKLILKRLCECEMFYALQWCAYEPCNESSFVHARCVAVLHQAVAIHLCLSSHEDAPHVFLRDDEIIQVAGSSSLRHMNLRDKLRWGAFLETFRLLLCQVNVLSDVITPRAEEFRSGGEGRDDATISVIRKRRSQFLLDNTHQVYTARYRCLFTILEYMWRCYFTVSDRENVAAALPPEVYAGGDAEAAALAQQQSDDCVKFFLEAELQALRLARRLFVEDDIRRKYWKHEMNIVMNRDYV
Chain of Trypanosoma brucei farnesyltransferase (Q57U08 entry or part of it): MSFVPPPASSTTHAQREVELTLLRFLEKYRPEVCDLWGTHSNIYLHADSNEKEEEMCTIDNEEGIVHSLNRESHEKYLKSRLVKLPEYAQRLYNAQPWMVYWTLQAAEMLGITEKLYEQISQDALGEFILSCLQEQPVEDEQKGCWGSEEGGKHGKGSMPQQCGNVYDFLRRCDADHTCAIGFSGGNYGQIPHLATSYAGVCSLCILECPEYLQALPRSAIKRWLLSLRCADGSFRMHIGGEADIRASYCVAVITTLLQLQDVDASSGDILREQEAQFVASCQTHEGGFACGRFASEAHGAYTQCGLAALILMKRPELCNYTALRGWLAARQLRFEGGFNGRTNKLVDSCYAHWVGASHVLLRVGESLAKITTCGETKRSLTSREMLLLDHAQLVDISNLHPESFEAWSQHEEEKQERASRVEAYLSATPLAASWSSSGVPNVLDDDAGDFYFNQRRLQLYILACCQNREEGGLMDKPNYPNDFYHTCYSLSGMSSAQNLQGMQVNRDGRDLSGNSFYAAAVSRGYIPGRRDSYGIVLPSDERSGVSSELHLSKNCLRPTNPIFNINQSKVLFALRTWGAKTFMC
Description: as §1

[9] = test system: MDA-MB-435; experiment: NCI-60 five-dose in vitro cytotoxicity screening, MDA-MB-435; type: cell-based, human; conditions: NCI 5-dose testing
Description: as §1

[10] = test system: MALME-3M; experiment: NCI-60 five-dose in vitro cytotoxicity screening, MALME-3M; type: cell-based, human; conditions: NCI 5-dose testing
Description: as §1

[11] = test system: Pf K1 strain; parameters: method as in PMID 21958335; conditions: read-out: antimalarial activity IC50; cited from earlier work
[12] = FcM29-Cameroon strain (chloroquine-resistant), average of three assays
[13] = average of three assays, read-out: FTase (T. b.) IC50
[14] = NF54 strain (chloroquine sensitive), IEF stage, average of two independent assays, read-out: P. falc. IC50

IC50 [3] | IC50 [2, 12] | IC50 [8, 13] | SMILES | mode of Jurkat cell death (Annexin V-FITC/PI) [5] | concentration at which toxicity towards Jurkat cells is apparent [5] | accumulation of intracellular ROS (DHR123 fluorescence) [7] | also measured
– | – | – | CCN(CC)CCCC(C)Nc1ccnc2cc(Cl)ccc12 (centres unmarked) [Chloroquine, reference compound] | – | – | – | IC50 ([1]; NF54, read-out: P. falc. IC50): 6.3 nM; IC50 [2]: 450 nM
780 ± 170 nM | > 17000 nM | 740 ± 200 nM | CC(C)=CCC/C(C)=C/Cc1cc(O)cc2c1OC(/C=C(\C)CCC=C(C)C)C1=C2C(=O)C2=C(C1=O)S(=O)(=O)CCN2 (centres unmarked) [Compound 1, thiaplidiaquinone A] | inducing both necrosis (PI^+/AV^−) and apoptosis (PI^−/AV^+) | ~100 µM | only modest levels of accumulation of intracellular ROS | IC50 [4]: ~3000 nM; accumulation of intracellular ROS, % of cells [6]: 97%; activity against P. falciparum (in words) [2]: inactive
1220 ± 68 nM | > 17000 nM | 3040 ± 300 nM | CC(C)=CCC/C(C)=C/Cc1cc2c(cc1O)C1=C(C(=O)C3=C(NCCS3(=O)=O)C1=O)C(/C=C(\C)CCC=C(C)C)O2 (centres unmarked) [Compound 2, thiaplidiaquinone B] | cell death almost exclusively via apoptosis | ~100 µM | only modest levels of accumulation of intracellular ROS | IC50 [4]: ~3000 nM; accumulation of intracellular ROS, % of cells [6]: 93%; activity against P. falciparum (in words) [2]: inactive
140 ± 1.7 nM | 4560 ± 760 nM | 220 ± 34 nM | CC(C)=CCC/C(C)=C/Cc1cc(O)cc2c1OC(/C=C(\C)CCC=C(C)C)C1=C2C(=O)C2=C(NCCS2(=O)=O)C1=O (centres unmarked) [Compound 3] | cell death by necrosis | ~100 µM | the most potent generator of intracellular ROS | GI50 ([9]; Homo sapiens): 52 nM; LC50 ([9]; Homo sapiens): 660 nM; TGI [9]: 180 nM; GI50 ([10]; Homo sapiens): 100 nM; LC50 ([10]; Homo sapiens): 3400 nM; TGI [10]: 600 nM
54 ± 5 nM | 4390 ± 770 nM | 98 ± 8 nM | CC(C)=CCC/C(C)=C/Cc1cc2c(cc1O)C1=C(C(=O)C3=C(C1=O)S(=O)(=O)CCN3)C(/C=C(\C)CCC=C(C)C)O2 (centres unmarked) [Compound 4] | dominantly via apoptosis | ~100 µM | – | –
3700 ± 600 nM | – | 3900 ± 600 nM | CC(C)=CCC/C(C)=C/Cc1cc(O)cc2c1OC(/C=C(\C)CCC=C(C)C)C1=C2C(=O)C=CC1=O (centres unmarked) [Compound 5] | dominated by late stage apoptosis (PI^+/AV^+) | – | – | IC50 [1, 14]: 2200 nM
– | – | 10 ± 2 nM | CSCC[C@H](NC(=O)c1ccc(NC[C@@H](N)CS)cc1-c1ccccc1)C(=O)O [FTI 276, reference compound] | – | – | – | –
– | – | – | COC1=CC(=O)C2=C(C1=O)C(/C=C(\C)CCC=C(C)C)Oc1cc(OC)c(O)c(C/C=C(\C)CCC=C(C)C)c12 (centres unmarked) [scabellone B] | – | – | – | IC50 [11]: 4800 nM

SMILES | IC50 [3] | IC50 [2, 12] | IC50 [8, 13] | mode of Jurkat cell death (Annexin V-FITC/PI) [5] | concentration at which toxicity towards Jurkat cells is apparent [5] | accumulation of intracellular ROS (DHR123 fluorescence) [7] | also measured
CC(C)=CCC/C(C)=C/Cc1cc2c(cc1O)C1=C(C(=O)C=CC1=O)C(/C=C(\C)CCC=C(C)C)O2 (centres unmarked) [Compound 6] | 1640 ± 300 nM | – | – | dominated by late stage apoptosis (PI^+/AV^+) | – | – | IC50 [1, 14]: 2300 nM; IC50 [8]: 6160 ± 1400 nM
